Laboratory results from patent publication US5571808A, “Method for treating smoking-related bone loss” (Eli Lilly and Company, priority 1995, dated 1996).

Legend:
[1] = test system: ovariectomized (ovex) rats; assay: Femur bone density in ovariectomized rats (model of post-menopausal osteoporosis); type: in vivo, Sprague Dawley rats; settings: for inhibition in vivo at 1 mg/kg: Rattus norvegicus, 840 h, 1 mg/kg oral, relative to estrogen treated and untreated ovex animals, read-out: % Inhibition of Bone Loss; for Prevention of bone loss (in words): oral, femur density
Method: A model of post-menopausal osteoporosis was used in which effects of different treatments upon femur density were determined. Seventy-five day old female Sprague Dawley rats (weight range of 225 g to 275 g) were obtained from Charles River Laboratories (Portage, Mich.). They were housed in groups of 3 and had ad libitum access to food (calcium content approximately 1%) and water. Room temperature was maintained at 22.2°±1.7° C. with a minimum relative humidity of 40%. The photoperiod in the room was 12 hours light and 12 hours dark.
The right femurs were excised and scanned at the distal metaphysis 1 mm from the patellar groove with single photon absorptiometry. Results of the densitometer measurements represent a calculation of bone density as a function of the bone mineral content and bone width.
Results are reported as the mean of measurements from thirty rats ± the standard error of the mean.
Accordingly, each point reflects the responses of thirty rats and depicts a typical dose response curve for raloxifene in this model. Results are reported as the mean ± the standard error of the mean.
Other compounds of formula I were administered orally in the rat assay described in Example 1.

[2] = test system: bone loss in postmenopausal women; settings: cited from earlier work

Row | Molecule | inhibition in vivo at 1 mg/kg [1] [%] | Prevention of bone loss (in words) [1] | also measured
1 | O=C(Oc1ccc(-c2sc3cc(OC(=O)c4ccccc4)ccc3c2C(=O)c2ccc(OCCN3CCCCC3)cc2)cc1)c1ccccc1 [Compound 12] | 60 | – | –
2 | O=C(c1ccc(OCCN2CCCC2)cc1)c1c(-c2ccc(O)cc2)sc2cc(O)ccc12 [Compound 16] | 25 | – | –
3 | COc1ccc(-c2sc3cc(OC)ccc3c2C(=O)c2ccc(OCCN3CCCCC3)cc2)cc1 [Compound 18] | 26 | – | –
4 | C#C[C@]1(O)CC[C@H]2[C@@H]3CCc4cc(O)ccc4[C@H]3CC[C@@]21C [EE2, ethynyl estradiol] | – | prevented this loss of bone in a dose dependent manner | –
5 | O=C(c1ccc(OCCN2CCCCC2)cc1)c1c(-c2ccc(O)cc2)sc2cc(O)ccc12 [raloxifene, 6-hydroxy-2-(4-hydroxyphenyl)-3-[4-(2-piperidinoethoxy)benzoyl]benzo[b]thiophene] | – | prevented bone loss in a dose dependent manner | –
6 | estrogen | – | – | Disorders implicated in long-term estrogen therapy (in words) ([2]; long-term therapy, postmenopausal women): increased risk of uterine and breast cancer; Protective effects of estrogen therapy on bone (in words) ([2]; women smokers (Kiel et al.)): eliminated for women smokers
